From ChEMBL document CHEMBL5149974, “Antimicrobial drugs bearing guanidine moieties: A review” (Eur J Med Chem, 2021)
Values after ≈ are worked out from the molar mass of the structure shown.

Legend:
Format in all cases: functional
Staphylococcus aureus [1] = assay: Antibacterial activity against Staphylococcus aureus assessed as bacterial growth inhibition incubated for 24 hrs
Nakaseomyces glabratus [2] = assay: Synergistic antifungal activity against Candida glabrata assessed as fractional inhibitory concentration index in presence of amphotericin incubated for 18 hrs by checkerboard assay
Nakaseomyces glabratus [3] = assay: Synergistic antifungal activity against Candida glabrata assessed as fractional inhibitory concentration index in presence of fluconazole incubated for 18 hrs by checkerboard assay
Nakaseomyces glabratus [4] = assay: Synergistic antifungal activity against Candida glabrata assessed as fractional inhibitory concentration index in presence of voriconazole incubated for 18 hrs by checkerboard assay
Staphylococcus aureus [5] = assay: Potentiation of ethidium bromide-induced antibacterial activity against Staphylococcus aureus 1199B overexpressing NorA efflux pump assessed as fold reduction in ethidium bromide MIC by microdilution method
Staphylococcus aureus [6] = assay: Potentiation of Norfloxacin-induced antibacterial activity against Staphylococcus aureus 1199B overexpressing NorA efflux pump assessed as fold reduction in norfloxacin MIC by microdilution method
[7] = tested on: Mycobacterium tuberculosis; assay: Anti-mycobacterial activity against Mycobacterium tuberculosis H37Rv assessed as growth inhibition incubated for 48 hrs by alamar blue staining based analysis
[8] = tested on: Mycolicibacterium smegmatis; assay: Potentiation of cefotaxime-induced antimycobacterial activity against Mycobacterium smegmatis assessed as cefotaxime MIC at 9 ug/ml (reference value: 128 ug/ml); settings: dose 9 µg/ml
[9] = tested on: Mycobacterium tuberculosis; assay: Anti-mycobacterial activity against Mycobacterium tuberculosis H37Rv ATCC […] assessed as bacterial growth inhibition by alamar blue assay
Pseudomonas aeruginosa [10] = assay: Antibacterial activity against Pseudomonas aeruginosa assessed as bacterial growth inhibition
Escherichia coli [11] = assay: Antibacterial activity against Escherichia coli assessed as bacterial growth inhibition
Staphylococcus aureus [12] = assay: Antibacterial activity against methicillin-resistant Staphylococcus aureus assessed as bacterial growth inhibition
Clostridioides difficile = assay: Antibacterial activity against Clostridium difficile assessed as bacterial growth inhibition incubated for 24 hrs
Enterococcus faecalis [13] = assay: Antibacterial activity against vancomycin-resistant Enterococcus faecalis assessed as bacterial growth inhibition
[14] = tested on: Staphylococcus epidermidis; assay: Antibacterial activity against methicillin-resistant Staphylococcus epidermidis assessed as bacterial growth inhibition
Klebsiella pneumoniae [15] = assay: Antibacterial activity against Klebsiella pneumoniae assessed as bacterial growth inhibition
Staphylococcus aureus [16] = assay: Potentiation of ethidium bromide-induced antibacterial activity against Staphylococcus aureus 1199B overexpressing NorA efflux pump assessed as ethidium bromide MIC by microdilution method
Staphylococcus aureus [17] = assay: Potentiation of Norfloxacin-induced antibacterial activity against Staphylococcus aureus 1199B overexpressing NorA efflux pump assessed as norfloxacin MIC by microdilution method
Escherichia coli [18] = assay: Antibacterial activity against Escherichia coli CMCC 25922 assessed as inhibition of bacterial growth incubated for 24 hrs by microplate reader analysis
Pseudomonas aeruginosa [19] = assay: Antibacterial activity against multidrug-resistant Pseudomonas aeruginosa ATCC BAA-2111 assessed as inhibition of bacterial growth incubated for 24 hrs by microplate reader analysis
Bacillus subtilis [20] = assay: Antibacterial activity against Bacillus subtilis CMCC 63501 assessed as inhibition of bacterial growth incubated for 24 hrs by microplate reader analysis
Staphylococcus aureus [21] = assay: Antibacterial activity against Staphylococcus aureus CMCC (B) 26003 assessed as inhibition of bacterial growth incubated for 24 hrs by microplate reader analysis
Staphylococcus aureus [22] = assay: Antibacterial activity against Staphylococcus aureus assessed as inhibition of bacterial growth measured after 24 hrs
Staphylococcus aureus [23] = assay: Antibacterial activity against multidrug-resistant Staphylococcus aureus ATCC 43300 assessed as inhibition of bacterial growth incubated for 24 hrs by microplate reader analysis
Escherichia coli [24] = assay: Antibacterial activity against Escherichia coli CMCC 44568 assessed as inhibition of bacterial growth incubated for 24 hrs by microplate reader analysis
Staphylococcus aureus [25] = assay: Antibacterial activity against Staphylococcus aureus CMCC 25923 assessed as inhibition of bacterial growth incubated for 24 hrs by microplate reader analysis
Enterococcus faecalis [26] = assay: Antibacterial activity against Enterococcus faecalis CMCC 29212 assessed as inhibition of bacterial growth incubated for 24 hrs by microplate reader analysis
Streptococcus mutans = assay: Antibacterial activity against Streptococcus mutans BNCC 336931 assessed as inhibition of bacterial growth incubated for 24 hrs by microplate reader analysis
Enterococcus faecalis [27] = assay: Antibacterial activity against Enterococcus faecalis assessed as inhibition of bacterial growth measured after 24 hrs
Pseudomonas aeruginosa [28] = assay: Antibacterial activity against Pseudomonas aeruginosa CMCC 10104 assessed as inhibition of bacterial growth incubated for 24 hrs by microplate reader analysis
Bacillus subtilis [29] = assay: Antibacterial activity against Bacillus subtilis assessed as inhibition of bacterial growth measured after 24 hrs
Staphylococcus aureus [30] = assay: Antibacterial activity against multidrug-resistant Staphylococcus aureus ATCC 33591 assessed as inhibition of bacterial growth incubated for 24 hrs by microplate reader analysis
Pseudomonas aeruginosa [31] = assay: Antibacterial activity against Pseudomonas aeruginosa CMCC 27853 assessed as inhibition of bacterial growth incubated for 24 hrs by microplate reader analysis
[32] = tested on: Plasmodium vinckei petteri; assay: Antimalarial activity against Plasmodium vinckei petteri 279BY infected in Swiss mouse assessed as reduction in parasitemia administered orally once daily for 4 consecutive days and measured on day 5; settings: 120 h, route po, time 5 day
[33] = tested on: Plasmodium vinckei petteri; assay: Antimalarial activity against Plasmodium vinckei petteri 279BY infected in Swiss mouse assessed as reduction in parasitemia administered intraperitoneally once daily for 4 consecutive days and measured on day 5; settings: 120 h, route ip, time 5 day
[34] = tested on: Mycolicibacterium smegmatis; assay: Potentiation of cefotaxime-induced antibacterial activity against Mycobacterium smegmatis assessed as cefotaxime MIC incubated for 48 hrs by alamar blue assay (reference value: 64 ug/ml)
Klebsiella pneumoniae [35] = assay: Antibacterial activity against Klebsiella pneumoniae ATCC 13833 assessed as growth inhibition incubated for 18 hrs by broth microdilution method
Acinetobacter baumannii = assay: Antibacterial activity against Acinetobacter baumannii ATCC 17978 assessed as growth inhibition incubated for 18 hrs by broth microdilution method
Escherichia coli [36] = assay: Antibacterial activity against Escherichia coli CCUG assessed as growth inhibition incubated for 18 hrs by broth microdilution method
Enterococcus faecalis [37] = assay: Antibacterial activity against Enterococcus faecalis ATCC 29212 assessed as growth inhibition incubated for 18 hrs by broth microdilution method
Pseudomonas aeruginosa [38] = assay: Antibacterial activity against Pseudomonas aeruginosa ATCC 27853 assessed as growth inhibition incubated for 18 hrs by broth microdilution method
Bacillus subtilis [39] = assay: Antibacterial activity against Bacillus subtilis ATCC 6633 assessed as growth inhibition incubated for 18 hrs by broth microdilution method
[40] = tested on: Staphylococcus epidermidis; assay: Antibacterial activity against Staphylococcus epidermidis ATCC 14990 assessed as growth inhibition incubated for 18 hrs by broth microdilution method
Staphylococcus aureus [41] = assay: Antibacterial activity against Staphylococcus aureus ATCC 25923 assessed as growth inhibition incubated for 18 hrs by broth microdilution method
Escherichia coli [42] = assay: Antibacterial activity against Escherichia coli assessed as bacterial growth inhibition incubated for 24 hrs
[43] = tested on: Mycobacterium tuberculosis; assay: Potentiation of isoniazid-induced antimycobacterial activity against Mycobacterium tuberculosis H37Rv assessed as reduction in isoniazid MIC at 125 uM incubated for 48 hrs by alamar blue staining based analysis
[44] = tested on: Mycobacterium tuberculosis; assay: Potentiation of isoniazid-induced antimycobacterial activity against Mycobacterium tuberculosis H37Rv assessed as reduction in isoniazid MIC at 250 uM incubated for 48 hrs by alamar blue staining based analysis
[45] = tested on: Mycobacterium tuberculosis; assay: Antibacterial activity against Mycobacterium tuberculosis H37Rv assessed as bacterial growth inhibition by vertical diffusion method

Q: Cl.N=C(N)NCCCNC(=O)C(=O)c1cc(Br)ccc1NC(=O)c1ccc2ccccc2c1 was tested. Which MIC (Staphylococcus aureus [1]) did it give?
A: Its MIC is 6 µg/mL.

Q: What does the source list for CCCCNC(=N)NC(=N)N [BUFORMIN]?
A: fractional inhibitory concentration index (FICI) (Nakaseomyces glabratus [2]): 0.5; fractional inhibitory concentration index (FICI) (Nakaseomyces glabratus [3]): 0.5; fractional inhibitory concentration index (FICI) (Nakaseomyces glabratus [4]): 0.5

Q: Which “fold change (FC)” value (Staphylococcus aureus [5]) does the source give for Cl.N#Cc1ccc(/C=N/NC(=N)N)cc1 here?
A: The value was “<=32”.

Q: What about the “fold change (FC)” value (Staphylococcus aureus [6]) of the same molecule?
A: The value was “<=16”.

Q: For NNC(=O)c1ccncc1 [ISONIAZID], which MIC [7] is on record?
A: The MIC was 0.625 µg/mL (≈ 4.56 µM).

Q: Which MIC [8] does the source give for CCCCCc1ccc(C(=O)Nc2ccc3c(c2)nc(N)n3CCCc2ccccc2)cc1 here?
A: The MIC was 1 µg/mL.

Q: Which MIC [9] does the source give for Cc1nn(-c2ccccc2)c(Cl)c1-c1nc(N)nc2c1c(C)nn2-c1ccc(S(=O)(=O)O)cc1Cl here?
A: Its MIC is 1.2 µg/mL (≈ 2.26 µM).

Q: What does the source list for CCCCCCN1C(=N)N(CC(=O)Nc2cccc(NC(=O)CN3C[C@H](Cc4ccccc4)N(CCCCCC)C3=N)c2)C[C@@H]1Cc1ccccc1?
A: MIC (Pseudomonas aeruginosa [10]): 4 µg/mL (≈ 5.66 µM); MIC (Escherichia coli [11]): 0.75 µg/mL (≈ 1.06 µM); MIC (Staphylococcus aureus [12]): 0.16 µg/mL (≈ 0.226 µM); MIC (Clostridioides difficile): 1 µg/mL (≈ 1.41 µM); MIC (Enterococcus faecalis [13]): 0.75 µg/mL (≈ 1.06 µM); MIC [14]: 0.75 µg/mL (≈ 1.06 µM); MIC (Klebsiella pneumoniae [15]): 0.75 µg/mL (≈ 1.06 µM)

Q: What does the source list for Cl.N=C(N)N/N=C/c1ccnc2ccccc12?
A: fold change (FC) (Staphylococcus aureus [5]): <=32; MIC (Staphylococcus aureus [16]): 1 µg/mL; fold change (FC) (Staphylococcus aureus [6]): <=16; MIC (Staphylococcus aureus [17]): 8 µg/mL

Q: Which results are given for N=C(N)N/N=C/c1ccc(C#Cc2ccc(Cl)cc2)cc1?
A: MIC (Escherichia coli [18]): 0.25 µg/mL (≈ 0.842 µM); MIC (Pseudomonas aeruginosa [19]): 0.25 µg/mL (≈ 0.842 µM); MIC (Bacillus subtilis [20]): 0.25 µg/mL (≈ 0.842 µM); MIC (Staphylococcus aureus [21]): 0.25 µg/mL (≈ 0.842 µM); MIC (Staphylococcus aureus [22]): 0.25 µg/mL (≈ 0.842 µM); MIC (Staphylococcus aureus [23]): 0.25 µg/mL (≈ 0.842 µM); MIC (Escherichia coli [24]): 0.25 µg/mL (≈ 0.842 µM); MIC (Staphylococcus aureus [25]): 0.25 µg/mL (≈ 0.842 µM); MIC (Enterococcus faecalis [26]): 0.25 µg/mL (≈ 0.842 µM); MIC (Streptococcus mutans): 0.25 µg/mL (≈ 0.842 µM); MIC (Enterococcus faecalis [27]): 0.25 µg/mL (≈ 0.842 µM); MIC (Pseudomonas aeruginosa [28]): 0.25 µg/mL (≈ 0.842 µM); MIC (Bacillus subtilis [29]): 0.25 µg/mL (≈ 0.842 µM); MIC (Staphylococcus aureus [30]): 0.25 µg/mL (≈ 0.842 µM); MIC (Pseudomonas aeruginosa [31]): 0.25 µg/mL (≈ 0.842 µM)

Q: For Cn1oc(=O)n(CCCCCCCCCCCCn2c(=O)on(C)c2=O)c1=N, which ED50 [32] is on record?
A: Its ED50 is 82 mg/kg.

Q: What about the ED50 [33] of the same molecule?
A: The ED50 was 4 mg/kg.

Q: For CCCCCCCC(NC(=O)CCCc1c[nH]c(N)n1)c1ccccc1 (centres undefined), which MIC [34] is on record?
A: The MIC was 2 µg/mL.

Q: Which results are given for N=C(N)NCCCCCCCCN(CCCCCCCCNC(=N)NCC1CC1)C(=O)N(CCCCCCCCNC(=N)N)CCCCCCCCNC(=N)NCC1CC1?
A: MIC (Klebsiella pneumoniae [35]): 0.5 µg/mL (≈ 0.591 µM); MIC (Acinetobacter baumannii): 0.5 µg/mL (≈ 0.591 µM); MIC (Escherichia coli [36]): 0.5 µg/mL (≈ 0.591 µM); MIC (Enterococcus faecalis [37]): 0.5 µg/mL (≈ 0.591 µM); MIC (Pseudomonas aeruginosa [38]): 0.5 µg/mL (≈ 0.591 µM); MIC (Bacillus subtilis [39]): 0.5 µg/mL (≈ 0.591 µM); MIC [40]: 0.5 µg/mL (≈ 0.591 µM); MIC (Staphylococcus aureus [41]): 0.5 µg/mL (≈ 0.591 µM)

Q: For COC(=O)C(CCCCNC(=N)N)NC(=O)C(=O)c1ccccc1NC(=O)c1ccc2ccccc2c1.Cl (centres undefined), which MIC (Escherichia coli [42]) is on record?
A: Its MIC is 17 µg/mL.

Q: How did the MIC [43] turn out when CCCCCCC(CCCCCC)NC(=O)CCCc1c[nH]c(N)n1 was run?
A: The MIC was 0.039 µg/mL.

Q: And the MIC [44]?
A: Its MIC is 0.039 µg/mL.

Q: How did the MIC (Staphylococcus aureus [1]) turn out when COC(=O)C(CCCNC(=N)N)NC(=O)C(CCCCNC(=N)N)NC(=O)C(=O)c1cc(Br)ccc1NC(=O)c1ccc2ccccc2c1.Cl.Cl (centres undefined) was run?
A: The MIC was 10 µg/mL.

Q: Which “fractional inhibitory concentration index (FICI)” value (Nakaseomyces glabratus [2]) does the source give for CN(C)C(=N)NC(=N)N [METFORMIN] here?
A: The value was 0.5.

Q: What about the “fractional inhibitory concentration index (FICI)” value (Nakaseomyces glabratus [3]) of the same molecule?
A: Its value is 0.5.

Q: What about the “fractional inhibitory concentration index (FICI)” value (Nakaseomyces glabratus [4]) of the same molecule?
A: The value was 0.5.

Q: Which MIC [45] does the source give for N=C(N)Nc1nnc2nccn2n1 here?
A: Its MIC is 1.5 µg/mL (≈ 8.42 µM).
